The nature of series [1]: Cytotoxicity against African green monkey Vero cells incubated for 24 hrs by WST reagent based EZ-cytox assay. In kind it is toxicity, cell-based. The note with it: chlorocebus sabaeus.
A short description of series [2]: Selectivity index, ratio of CC50 for African green monkey Vero cells to EC50 for antiviral activity against SARS-CoV-2 expressing nucleocapsid protein infected in African green monkey Vero cells. Format: toxicity, cell-based. The note with it: read-out: Ratio CC50/EC50.
Series [3] has as its system SARS-CoV-2. Briefly: Antiviral activity against SARS-CoV-2 expressing nucleocapsid protein infected in African green monkey Vero cells assessed as inhibition of viral growth by Hoechst 33342 staining based immunofluorescence analysis. Format: functional, organism-based. Particulars: Severe acute respiratory syndrome coronavirus 2, Vero.
The test system of series [4] is Middle East respiratory syndrome-related coronavirus. Briefly: Antiviral activity against MERS-CoV expressing spike protein infected in African green monkey Vero cells assessed as inhibition of viral growth by Hoechst 33342 staining based immunofluorescence analysis. In kind it is functional, organism-based.
Series [5] has as its target CYP3A4 (Homo sapiens, UniProt P08684). Briefly: Inhibition of CYP3A4 in human liver microsomes using […] as substrate at 10 uM preincubated for 5 mins followed by substrate and NADPH addition and measured after 20 mins by HPLC-MS/MS analysis. Particulars: probe sorafenib, time 25 min. Format: ADME, Microsome.
Series [6] has as its target T1, CYP1A2 (Homo sapiens, UniProt P05177).
T1 sequence (P05177 whole entry): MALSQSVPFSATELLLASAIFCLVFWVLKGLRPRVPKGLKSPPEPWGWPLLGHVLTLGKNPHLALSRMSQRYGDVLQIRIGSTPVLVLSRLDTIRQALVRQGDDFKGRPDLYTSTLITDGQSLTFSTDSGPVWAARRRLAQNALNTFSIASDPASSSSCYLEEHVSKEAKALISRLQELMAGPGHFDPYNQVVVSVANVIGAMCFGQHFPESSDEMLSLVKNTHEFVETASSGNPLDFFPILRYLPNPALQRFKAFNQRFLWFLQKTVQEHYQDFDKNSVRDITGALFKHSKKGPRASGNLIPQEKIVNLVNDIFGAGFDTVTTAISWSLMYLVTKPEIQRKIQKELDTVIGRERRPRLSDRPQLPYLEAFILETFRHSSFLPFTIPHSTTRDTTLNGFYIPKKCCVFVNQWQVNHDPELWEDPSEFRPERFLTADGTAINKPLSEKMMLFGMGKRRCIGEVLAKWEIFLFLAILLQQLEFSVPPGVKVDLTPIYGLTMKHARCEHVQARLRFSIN
The experiment in a line: Inhibition of CYP1A2 in human liver microsomes using phenacetin as substrate at 10 uM preincubated for 5 mins followed by substrate and NADPH addition and measured after 20 mins by HPLC-MS/MS analysis. Particulars: probe phenacetin, time 25 min. Format: ADME, Microsome.

Series [7] deals with CYP2D6 (Homo sapiens, UniProt P10635). Briefly: Inhibition of CYP2D6 in human liver microsomes using dextromethorphan as substrate at 10 uM preincubated for 5 mins followed by substrate and NADPH addition and measured after 20 mins by HPLC-MS/MS analysis. In kind it is ADME, Microsome. The note with it: probe dextromethorphan, time 25 min.
For series [8], the target named is hERG (KCNH2) (Homo sapiens, UniProt Q12809). The experiment in a line: Inhibition of human ERG at 10 uM by fluorescence polarization relative to control. In kind it is toxicity.
Series [9] in a line: Cytotoxicity against CHO-K1 cells incubated for 24 hrs by WST reagent based EZ-cytox assay. Format: toxicity, cell-based, Cricetulus griseus. The note with it: chinese hamster.
A short description of series [10]: Metabolic stability in mouse liver microsomes assessed as parent compound remaining preincubated for 10 mins followed by NADPH addition and measured after 30 mins by HPLC-MS/MS analysis. Format: ADME, Microsome. Particulars: time 40 min, read-out: Stability.
Series [11] can be described thus: Metabolic stability in human liver microsomes assessed as parent compound remaining preincubated for 10 mins followed by NADPH addition and measured after 30 mins by HPLC-MS/MS analysis. In kind it is ADME, Microsome. Particulars: time 40 min, read-out: Stability.
Series [12] can be described thus: Cytotoxicity against mouse L929 cells incubated for 24 hrs by WST reagent based EZ-cytox assay. Format: toxicity, cell-based.
The target in series [13] is CYP2C9 (Homo sapiens, UniProt P11712). The experiment in a line: Inhibition of CYP2C9 in human liver microsomes using tolbutamide as substrate at 10 uM preincubated for 5 mins followed by substrate and NADPH addition and measured after 20 mins by HPLC-MS/MS analysis. In kind it is ADME, Microsome. Particulars: probe tolbutamide, time 25 min.
For series [14], the target named is CYP2C19 (Homo sapiens, UniProt P33261). The experiment in a line: Inhibition of CYP2C19 in human liver microsomes using S-mephenytoin as substrate at 10 uM preincubated for 5 mins followed by substrate and NADPH addition and measured after 20 mins by HPLC-MS/MS analysis. In kind it is ADME, Microsome. Particulars: probe S-mephenytoin, time 25 min.
The nature of series [15]: Cytotoxicity against mouse NIH3T3 cells incubated for 24 hrs by WST reagent based EZ-cytox assay. In kind it is toxicity, cell-based.
Series [16] can be described thus: Cytotoxicity against HFL1 cells incubated for 24 hrs by WST reagent based EZ-cytox assay. Format: toxicity, cell-based. The note with it: human.

Chain of CYP2C19 (P33261 whole entry): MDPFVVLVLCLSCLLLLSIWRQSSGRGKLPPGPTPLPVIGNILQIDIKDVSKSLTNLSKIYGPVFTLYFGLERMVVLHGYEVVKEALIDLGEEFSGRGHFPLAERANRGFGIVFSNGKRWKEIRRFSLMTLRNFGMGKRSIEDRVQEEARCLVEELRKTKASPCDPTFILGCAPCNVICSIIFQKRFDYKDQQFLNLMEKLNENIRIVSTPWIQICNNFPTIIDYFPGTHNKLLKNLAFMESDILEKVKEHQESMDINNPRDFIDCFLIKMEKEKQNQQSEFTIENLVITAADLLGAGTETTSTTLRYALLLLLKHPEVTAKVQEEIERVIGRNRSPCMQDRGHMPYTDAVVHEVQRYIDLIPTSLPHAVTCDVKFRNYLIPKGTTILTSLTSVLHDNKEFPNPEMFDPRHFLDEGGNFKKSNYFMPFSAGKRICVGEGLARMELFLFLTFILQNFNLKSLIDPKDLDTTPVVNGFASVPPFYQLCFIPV
Chain of CYP3A4 (P08684 whole entry): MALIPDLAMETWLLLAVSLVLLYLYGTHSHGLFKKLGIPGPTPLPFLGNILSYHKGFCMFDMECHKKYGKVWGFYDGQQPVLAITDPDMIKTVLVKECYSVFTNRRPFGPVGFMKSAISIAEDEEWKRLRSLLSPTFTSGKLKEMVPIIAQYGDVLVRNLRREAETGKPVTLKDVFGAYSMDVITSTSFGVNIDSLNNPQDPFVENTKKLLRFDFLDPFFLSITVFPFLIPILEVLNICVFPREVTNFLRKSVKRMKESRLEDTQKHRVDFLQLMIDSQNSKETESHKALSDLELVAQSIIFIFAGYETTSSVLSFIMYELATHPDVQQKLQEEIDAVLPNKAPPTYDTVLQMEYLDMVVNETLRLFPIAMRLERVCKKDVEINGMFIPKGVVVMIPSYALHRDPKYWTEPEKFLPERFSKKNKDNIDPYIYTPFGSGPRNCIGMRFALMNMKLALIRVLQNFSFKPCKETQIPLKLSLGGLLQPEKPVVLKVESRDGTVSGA
Chain of CYP2C9 (P11712 whole entry): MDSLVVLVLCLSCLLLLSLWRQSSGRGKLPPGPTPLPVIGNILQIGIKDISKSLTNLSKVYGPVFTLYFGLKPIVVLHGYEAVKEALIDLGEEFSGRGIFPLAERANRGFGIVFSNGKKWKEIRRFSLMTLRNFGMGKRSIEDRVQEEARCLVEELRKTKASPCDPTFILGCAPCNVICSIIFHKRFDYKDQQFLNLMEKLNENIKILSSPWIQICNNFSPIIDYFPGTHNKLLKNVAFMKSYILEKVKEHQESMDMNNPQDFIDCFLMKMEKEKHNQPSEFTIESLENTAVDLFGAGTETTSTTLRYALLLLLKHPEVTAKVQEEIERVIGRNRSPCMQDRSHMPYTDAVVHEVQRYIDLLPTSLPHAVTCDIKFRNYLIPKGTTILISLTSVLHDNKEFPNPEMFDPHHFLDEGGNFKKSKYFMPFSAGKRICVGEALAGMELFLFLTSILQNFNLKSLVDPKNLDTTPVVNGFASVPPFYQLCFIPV
Chain of CYP2D6 (P10635 whole entry): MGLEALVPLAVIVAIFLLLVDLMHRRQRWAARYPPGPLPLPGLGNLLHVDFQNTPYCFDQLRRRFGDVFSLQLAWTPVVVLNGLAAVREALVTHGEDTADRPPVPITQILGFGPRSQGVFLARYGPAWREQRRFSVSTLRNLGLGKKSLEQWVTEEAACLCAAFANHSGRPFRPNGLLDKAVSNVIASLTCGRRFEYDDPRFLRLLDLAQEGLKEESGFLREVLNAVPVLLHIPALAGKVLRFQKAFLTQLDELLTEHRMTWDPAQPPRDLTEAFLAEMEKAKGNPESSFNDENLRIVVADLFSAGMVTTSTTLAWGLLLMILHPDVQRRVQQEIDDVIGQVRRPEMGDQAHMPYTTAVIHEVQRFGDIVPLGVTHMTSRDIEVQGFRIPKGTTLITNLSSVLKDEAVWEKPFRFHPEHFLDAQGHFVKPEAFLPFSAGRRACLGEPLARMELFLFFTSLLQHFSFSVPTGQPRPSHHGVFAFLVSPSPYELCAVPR
Chain of hERG (KCNH2) (Q12809 whole entry): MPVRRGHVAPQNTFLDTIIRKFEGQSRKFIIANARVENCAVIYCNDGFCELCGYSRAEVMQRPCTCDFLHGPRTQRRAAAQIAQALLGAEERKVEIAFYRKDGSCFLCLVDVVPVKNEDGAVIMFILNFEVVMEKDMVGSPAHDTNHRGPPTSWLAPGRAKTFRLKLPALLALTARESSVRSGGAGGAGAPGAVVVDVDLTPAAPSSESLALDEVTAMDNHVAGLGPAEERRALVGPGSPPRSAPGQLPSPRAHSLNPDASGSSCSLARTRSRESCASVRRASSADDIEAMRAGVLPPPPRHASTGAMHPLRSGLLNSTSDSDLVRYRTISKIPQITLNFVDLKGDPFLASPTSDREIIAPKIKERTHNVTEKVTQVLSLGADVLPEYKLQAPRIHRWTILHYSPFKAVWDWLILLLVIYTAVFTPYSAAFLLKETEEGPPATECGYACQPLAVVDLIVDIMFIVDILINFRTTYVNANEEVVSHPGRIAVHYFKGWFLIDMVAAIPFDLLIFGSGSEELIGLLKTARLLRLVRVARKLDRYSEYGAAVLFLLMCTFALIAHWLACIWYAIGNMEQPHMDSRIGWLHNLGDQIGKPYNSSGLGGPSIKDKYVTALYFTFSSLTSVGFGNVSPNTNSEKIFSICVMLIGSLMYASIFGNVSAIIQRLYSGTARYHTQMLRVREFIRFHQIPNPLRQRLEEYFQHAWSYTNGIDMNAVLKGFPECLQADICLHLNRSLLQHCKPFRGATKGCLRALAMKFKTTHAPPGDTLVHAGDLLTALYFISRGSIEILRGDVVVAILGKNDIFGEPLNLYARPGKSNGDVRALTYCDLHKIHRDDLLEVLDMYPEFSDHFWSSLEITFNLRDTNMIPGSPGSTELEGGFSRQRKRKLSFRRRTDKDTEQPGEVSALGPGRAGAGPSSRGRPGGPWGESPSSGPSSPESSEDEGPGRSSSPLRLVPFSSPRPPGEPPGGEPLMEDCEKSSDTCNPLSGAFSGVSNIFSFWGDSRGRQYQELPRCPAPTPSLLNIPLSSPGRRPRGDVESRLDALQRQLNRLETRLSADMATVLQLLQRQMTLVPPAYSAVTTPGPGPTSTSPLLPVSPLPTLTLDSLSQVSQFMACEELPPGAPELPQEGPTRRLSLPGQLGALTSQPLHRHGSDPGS

For the compound `CCC(CC)COC(=O)[C@H](C)N[P@](=O)(OC[C@H]1O[C@@](C#N)(c2ccc3c(N)ncnn23)[C@H](O)[C@@H]1O)Oc1ccccc1`, the CC50 at 24 h in series [1] was above 25 µM.

`O=C(Nc1cc(Cl)cc(Cl)c1)c1n[nH]c2ccccc12`: in series [2], the selectivity ratio was 1. The EC50 in series [3] was above 25 µM; in series [4], 1.7 µM. The CC50 at 24 h in [1] was above 25 µM.

With `Cc1cc(C)cc(NC(=O)c2n[nH]c3ccc(Cl)cc23)c1`, the selectivity ratio in series [2] was above 11.1. The EC50 in series [3] is 2.3 µM. This compound showed a CC50 at 24 h in series [1] above 25 µM.

In the case of `O=C(Nc1ccccc1Cl)c1n[nH]c2ccc(Cl)cc12`, the selectivity ratio in series [2] turned out to be 1. Further, in series [3], the EC50 was above 25 µM. The CC50 at 24 h in series [1] was above 25 µM.

With `O=C(Nc1cc(Cl)cc(Cl)c1)c1n[nH]c2ccc(Cl)cc12`, in series [2], the selectivity ratio was above 36. Further, the inhibition at 20 min, 10 µM in series [5] is 54%; in [6], 11%; in series [7] it was 1%; in series [13] it was 14%; in series [14] it was 8%. Moreover, the inhibition at 10 µM in [8] was below 1%. The CC50 at 24 h in [9] was above 100 µM; in series [12], above 100 µM; in series [1] it was above 20 µM; in series [15] it was above 100 µM; in series [16], above 100 µM. In addition, the remaining at 0.5 h in series [10] stood at 48%; in series [11], 97%. The EC50 in series [3] came to 0.69 µM.

Turning to `O=C(Nc1ccc(Cl)cc1)c1n[nH]c2ccc(Cl)cc12`, the selectivity ratio in series [2] was found to be 1. In addition, in [3], the half-maximal effective concentration (EC50) was above 25 µM. Moreover, the CC50 at 24 h in [1] is above 25 µM.

Consider `O=C(Nc1ccccc1F)c1n[nH]c2ccc(Cl)cc12`, for which the selectivity ratio in series [2] amounted to 1. For the same compound, the EC50 in [3] was above 25 µM. The compound further had a CC50 at 24 h in [1] above 25 µM.

`O=C(NC1CCCCC1)c1n[nH]c2ccc(Cl)cc12`: the selectivity ratio in series [2] is 1. Moreover, the EC50 in [3] is above 25 µM. Also, in series [1], the half-maximal cytotoxic concentration (CC50) at 24 h is above 25 µM.

Take `O=C(Nc1cc(Cl)cc(Cl)c1)c1n[nH]c2cc(F)ccc12`: the selectivity ratio in [2] is above 21.4. In series [3], the concentration giving a half-maximal response (EC50) is 1.2 µM. The same compound displayed a half-maximal cytotoxic concentration (CC50) at 24 h in series [1] above 25 µM.

As for `N#Cc1ccc(NC(=O)c2n[nH]c3ccc(Cl)cc23)cc1`, the selectivity ratio in [2] is 1. Further, the EC50 in series [3] is above 25 µM. The compound further had a cytotoxic concentration (CC50) at 24 h in [1] above 25 µM.

Regarding `O=C(Nc1cccc(C(F)(F)F)c1)c1n[nH]c2ccc(Cl)cc12`, the selectivity ratio in series [2] was above 8.8. The EC50 in series [3] came out at 2.8 µM. In [1], this compound gave a CC50 at 24 h above 25 µM.

For `O=C(Nc1cccc([N+](=O)[O-])c1)c1n[nH]c2ccc(Cl)cc12`, in series [2], the selectivity ratio stood at 1. The EC50 in series [3] is above 25 µM. The CC50 at 24 h in series [1] was above 25 µM.

For `N#Cc1cccc(NC(=O)c2n[nH]c3ccc(Cl)cc23)c1`, the selectivity ratio in [2] is above 13.7. The EC50 in series [3] was 1.8 µM. Further, the CC50 at 24 h in series [1] was above 25 µM.

For `N#Cc1ccccc1NC(=O)c1n[nH]c2ccc(Cl)cc12`, in series [2], the selectivity ratio came out at 1. The EC50 in series [3] is above 25 µM. The CC50 at 24 h in [1] is above 25 µM.

In the case of `Cc1cccc(NC(=O)c2n[nH]c3ccc(Cl)cc23)c1`, in series [2], the selectivity ratio came out at 1. Besides, the EC50 in [3] is above 25 µM. Further, the cytotoxic concentration (CC50) at 24 h in [1] is above 25 µM.

As for `O=C(Nc1cc(Cl)cc(Cl)c1)c1n[nH]c2cc(Cl)ccc12`, the selectivity ratio in [2] worked out at 1. Further, in series [3], the EC50 is above 25 µM. For the same compound, in [1], the CC50 at 24 h was above 25 µM.

`O=C(Nc1cc(Cl)cc(Cl)c1)c1n[nH]c2ccc(F)cc12`: in series [2], the selectivity ratio turned out to be 1. For the same compound, the EC50 in series [3] is above 25 µM. The compound also displayed a CC50 at 24 h in series [1] above 25 µM.

In the case of `O=C(Nc1cccc(OC(F)(F)F)c1)c1n[nH]c2ccc(Cl)cc12`, the selectivity ratio in series [2] was above 4.6. Moreover, the EC50 in series [3] was 5.5 µM. In series [1], this compound yielded a CC50 at 24 h above 25 µM.

Consider `CCCCNC(=O)c1n[nH]c2ccc(Cl)cc12`, for which the selectivity ratio in [2] came out at 1. For the same compound, in series [3], the EC50 was above 25 µM. This compound gave a CC50 at 24 h in series [1] above 25 µM.

Turning to `O=C(Nc1cccc(F)c1)c1n[nH]c2ccc(Cl)cc12`, in [2], the selectivity ratio worked out at 1. For the same compound, the EC50 in series [3] was above 25 µM. Also, in series [1], the CC50 at 24 h is above 25 µM.

On to `O=C(Nc1ccc(F)cc1)c1n[nH]c2ccc(Cl)cc12`, for which, in [2], the selectivity ratio was determined as 1. Further, the concentration for a half-maximal effect (EC50) in series [3] is above 25 µM. Also, the CC50 at 24 h in [1] was above 25 µM.

Source of the values: ChEMBL document CHEMBL6096632, “Synthesis and evaluation of N-arylindazole-3-carboxamide derivatives as novel antiviral agents against SARS-CoV-2” (Bioorg Med Chem Lett, 2024).
